Laboratory results reported in ChEMBL document CHEMBL4130462, “Natural isoflavone biochanin A as a template for the design of new and potent 3-phenylquinolone efflux inhibitors against Mycobacterium avium” (Eur J Med Chem, 2017).
Values after ≈ are worked out from the molar mass of the structure shown.

Key:
[1] = tested on: Mycobacterium avium; assay: Antimycobacterial activity against Mycobacterium avium isolate MAV1 assessed as reduction in bacterial viability incubated for 3 days by MTT assay; format: organism-based; settings: in vitro, 72 h
[2] = tested on: Mycobacterium avium subsp. avium ATCC 25291
Description: Inhibition of multidrug resistance efflux pump in Mycobacterium avium ATCC 25291 assessed as potentiation of clarithromycin -induced antibacterial activity by measuring clarithromycin MIC at 1/4 MIC incubated for 3 days by MTT assay

[3] = tested on: Mycobacterium avium; assay: Antimycobacterial activity against Mycobacterium avium isolate MAV2 assessed as reduction in bacterial viability incubated for 3 days by MTT assay; format: organism-based; settings: 72 h
[4] = tested on: Mycobacterium avium; settings: isolate MAV4
[5] = tested on: Mycobacterium avium; settings: 104 mc'2 4
[6] = tested on: Mycobacterium avium subsp. avium ATCC 25291; remark: listed apart in the source
[7] = tested on: Mycobacterium avium; settings: 104 mc'2 3
[8] = tested on: Mycobacterium avium; settings: 104 mc'2 3; remark: listed apart in the source
[9] = tested on: Mycobacterium avium; settings: isolate MAV1
[10] = tested on: Mycobacterium avium; settings: 104 mc'2 4; remark: listed apart in the source
[11] = tested on: Mycobacterium avium; settings: 104 mc'2 4; remark: listed apart in the source
[12] = tested on: Mycobacterium avium; settings: isolate MAV2
[13] = tested on: Mycobacterium avium subsp. avium ATCC 25291; remark: listed apart in the source
[14] = tested on: Mycobacterium avium subsp. avium ATCC 25291; remark: listed apart in the source
[15] = tested on: Mycobacterium avium; settings: isolate MAV2; remark: listed apart in the source
[16] = tested on: Mycobacterium avium; settings: isolate MAV3
[17] = tested on: Mycobacterium avium; settings: isolate MAV3; remark: listed apart in the source
[18] = tested on: Mycobacterium avium; settings: 104 mc'2 4; remark: listed apart in the source
[19] = tested on: Mycobacterium avium; settings: isolate MAV4; remark: listed apart in the source
Description: Inhibition of multidrug resistance efflux pump in Mycobacterium avium isolate MAV4 assessed as potentiation of clarithromycin -induced antibacterial activity by measuring clarithromycin MIC at 1/4 MIC incubated for 3 days by MTT assay

[20] = tested on: Mycobacterium avium; settings: 104
[21] = tested on: Mycobacterium avium subsp. avium ATCC 25291; remark: listed apart in the source
Description: Inhibition of multidrug resistance efflux pump in Mycobacterium avium ATCC 25291 assessed as potentiation of clarithromycin -induced antibacterial activity by measuring clarithromycin MIC at 1/2 MIC incubated for 3 days by MTT assay

[22] = tested on: Mycobacterium avium; settings: 104 mc'2 3; remark: listed apart in the source
[23] = tested on: Mycobacterium avium; assay: Antimycobacterial activity against Mycobacterium avium ATCC 25291 assessed as reduction in bacterial viability incubated for 3 days by MTT assay; format: organism-based; settings: mycobacterium avium subsp. avium atcc 25291, 72 h
[24] = tested on: Mycobacterium avium; settings: isolate MAV3; remark: listed apart in the source
[25] = tested on: Mycobacterium avium; settings: isolate MAV3; remark: listed apart in the source
[26] = tested on: Mycobacterium avium; settings: isolate MAV3; remark: listed apart in the source
[27] = tested on: Mycobacterium avium; settings: 104 mc'2 3; remark: listed apart in the source
[28] = tested on: Mycobacterium avium; settings: isolate MAV4; remark: listed apart in the source
Description: Inhibition of multidrug resistance efflux pump in Mycobacterium avium isolate MAV4 assessed as potentiation of clarithromycin -induced antibacterial activity by measuring clarithromycin MIC at 1/2 MIC incubated for 3 days by MTT assay

[29] = tested on: Mycobacterium avium; settings: isolate MAV2; remark: listed apart in the source
[30] = tested on: Mycolicibacterium smegmatis; assay: Antimycobacterial activity against Mycobacterium smegmatis str. MC2 155 assessed as reduction in bacterial viability incubated for 3 days by MTT assay; format: organism-based; settings: 72 h
[31] = tested on: Mycobacterium avium; settings: isolate MAV2; remark: listed apart in the source
[32] = tested on: Mycobacterium avium; settings: 104 mc'2 4; remark: listed apart in the source
[33] = tested on: Mycobacterium avium; settings: 104 mc'2 3; remark: listed apart in the source
[34] = tested on: Mycobacterium avium; settings: isolate MAV3; remark: listed apart in the source
[35] = tested on: Mycobacterium avium; settings: 104; remark: listed apart in the source
[36] = tested on: Mycobacterium avium; settings: isolate MAV2; remark: listed apart in the source
Description: Inhibition of multidrug resistance efflux pump in Mycobacterium avium isolate MAV2 assessed as potentiation of clarithromycin -induced antibacterial activity by measuring clarithromycin MIC at 1/2 MIC incubated for 3 days by MTT assay (Rvb = >1024 ug/ml)

[37] = tested on: Mycobacterium avium; settings: 72 h
Description: Antimycobacterial activity against Mycobacterium avium 104 assessed as reduction in bacterial viability incubated for 3 days by MTT assay

[38] = tested on: Mycobacterium avium; settings: 104; remark: listed apart in the source
[39] = tested on: Mycobacterium avium; settings: 104 mc'2 3; remark: listed apart in the source
[40] = tested on: Mycobacterium avium; settings: isolate MAV4; remark: listed apart in the source
[41] = tested on: Mycobacterium avium; settings: 104 mc'2 4; remark: listed apart in the source

`CN(C)CCCN1c2ccccc2Sc2ccc(Cl)cc21` [CHLORPROMAZINE] was tested, and the MIC [1] was 30 µg/mL (≈ 94.1 µM), the MIC [2] was 1 µg/mL (≈ 3.14 µM) and the MIC [3] was 30 µg/mL (≈ 94.1 µM). The MIC [4] was 2 µg/mL (≈ 6.27 µM), the MIC [5] was 128 µg/mL (≈ 401 µM) and the MIC [6] was under 0.5 µg/mL. For the same molecule, the MIC [7] was 1 µg/mL (≈ 3.14 µM), the MIC [8] was under 4 µg/mL and the MIC [9] was under 4 µg/mL. It also gave an MIC [10] of over 512 µg/mL, an MIC [11] of 64 µg/mL (≈ 201 µM) and an MIC [12] of over 512 µg/mL. It also gave an MIC [13] of 8 µg/mL (≈ 25.1 µM), an MIC [14] of 16 µg/mL (≈ 50.2 µM) and an MIC [15] of 2 µg/mL (≈ 6.27 µM). The MIC [16] was 4 µg/mL (≈ 12.5 µM), the MIC [17] was 8 µg/mL (≈ 25.1 µM) and the MIC [18] was over 512 µg/mL. It also gave an MIC [19] of 2 µg/mL (≈ 6.27 µM), an MIC [20] of 64 µg/mL (≈ 201 µM) and an MIC [21] of under 0.125 µg/mL. For the same molecule, the MIC [22] was 0.78 µg/mL (≈ 2.45 µM), the MIC [23] was 30 µg/mL (≈ 94.1 µM) and the MIC [24] was 4 µg/mL (≈ 12.5 µM). It also gave an MIC [25] of 3.12 µg/mL (≈ 9.8 µM), an MIC [26] of 8 µg/mL (≈ 25.1 µM) and an MIC [27] of under 4 µg/mL. For the same molecule, the MIC [28] was 0.5 µg/mL (≈ 1.57 µM), the MIC [29] was over 512 µg/mL and the MIC [30] was 60 µg/mL (≈ 188 µM). The MIC [31] was 6.25 µg/mL (≈ 19.6 µM), the MIC [32] was 1 µg/mL (≈ 3.14 µM) and the MIC [33] was 6.25 µg/mL (≈ 19.6 µM). It also gave an MIC [34] of 0.5 µg/mL (≈ 1.57 µM), an MIC [35] of 64 µg/mL (≈ 201 µM) and an MIC [36] of over 512 µg/mL. For the same molecule, the MIC [37] was 30 µg/mL (≈ 94.1 µM), the MIC [38] was 3.12 µg/mL (≈ 9.8 µM) and the MIC [39] was 4 µg/mL (≈ 12.5 µM). It also gave an MIC [40] of 4 µg/mL (≈ 12.5 µM) and an MIC [41] of 512 µg/mL (≈ 1610 µM).

`CSc1ccc2c(c1)N(CCC1CCCCN1C)c1ccccc1S2` (configuration not stated) [THIORIDAZINE] gave an MIC [1] of 30 µg/mL (≈ 81 µM), an MIC [2] of 2 µg/mL (≈ 5.4 µM) and an MIC [3] of 30 µg/mL (≈ 81 µM). The MIC [4] was 4 µg/mL (≈ 10.8 µM), the MIC [5] was 128 µg/mL (≈ 345 µM) and the MIC [6] was 4 µg/mL (≈ 10.8 µM). It also gave an MIC [7] of under 0.125 µg/mL, an MIC [8] of under 4 µg/mL and an MIC [9] of under 4 µg/mL. The MIC [10] was over 512 µg/mL, the MIC [11] was 32 µg/mL (≈ 86.3 µM) and the MIC [12] was 512 µg/mL (≈ 1380 µM). For the same molecule, the MIC [13] was 16 µg/mL (≈ 43.2 µM), the MIC [14] was 32 µg/mL (≈ 86.3 µM) and the MIC [15] was 0.25 µg/mL (≈ 0.675 µM). For the same molecule, the MIC [16] was 4 µg/mL (≈ 10.8 µM), the MIC [17] was 8 µg/mL (≈ 21.6 µM) and the MIC [18] was over 512 µg/mL. For the same molecule, the MIC [19] was 4 µg/mL (≈ 10.8 µM), the MIC [20] was 256 µg/mL (≈ 691 µM) and the MIC [21] was 1 µg/mL (≈ 2.7 µM). The MIC [22] was 1.56 µg/mL (≈ 4.21 µM), the MIC [23] was 30 µg/mL (≈ 81 µM) and the MIC [24] was 4 µg/mL (≈ 10.8 µM). It also gave an MIC [25] of 12.5 µg/mL (≈ 33.7 µM), an MIC [26] of 16 µg/mL (≈ 43.2 µM) and an MIC [27] of under 4 µg/mL. For the same molecule, the MIC [28] was 1 µg/mL (≈ 2.7 µM), the MIC [29] was over 512 µg/mL and the MIC [30] was 30 µg/mL (≈ 81 µM). For the same molecule, the MIC [31] was 6.25 µg/mL (≈ 16.9 µM), the MIC [32] was 0.25 µg/mL (≈ 0.675 µM) and the MIC [33] was 12.5 µg/mL (≈ 33.7 µM). The MIC [34] was 2 µg/mL (≈ 5.4 µM), the MIC [35] was 128 µg/mL (≈ 345 µM) and the MIC [36] was 256 µg/mL (≈ 691 µM). It also gave an MIC [37] of 30 µg/mL (≈ 81 µM), an MIC [38] of 6.25 µg/mL (≈ 16.9 µM) and an MIC [39] of 4 µg/mL (≈ 10.8 µM). The MIC [40] was 8 µg/mL (≈ 21.6 µM) and the MIC [41] was 256 µg/mL (≈ 691 µM).
